Literature values, collected in patent US11667640B2, “Mitoketoscins: mitochondrial-based therapeutics targeting ketone metabolism in cancer cells” (LUNELLA BIOTECH, INC., priority 2017, dated 2023).

Biological target: T1, ACAT1 (Homo sapiens, UniProt P24752)
T1 sequence (P24752 34-427): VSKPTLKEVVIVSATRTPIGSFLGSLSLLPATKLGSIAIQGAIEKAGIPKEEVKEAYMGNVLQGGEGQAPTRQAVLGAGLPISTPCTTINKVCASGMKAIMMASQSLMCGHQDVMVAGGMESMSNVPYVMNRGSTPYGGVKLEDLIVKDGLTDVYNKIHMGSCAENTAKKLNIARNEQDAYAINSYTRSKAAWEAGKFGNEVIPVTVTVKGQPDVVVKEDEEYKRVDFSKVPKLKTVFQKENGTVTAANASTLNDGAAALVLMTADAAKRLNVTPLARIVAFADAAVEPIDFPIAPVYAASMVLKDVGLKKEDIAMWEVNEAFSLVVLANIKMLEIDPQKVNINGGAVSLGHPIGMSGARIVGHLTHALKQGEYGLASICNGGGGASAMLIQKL
Conditions: Garcia-Bermudez et al, Mol Cell 2016

In the case of COC(=O)C1=CCCN(C)C1 [Arecoline], the ACAT1 inhibition is given as “potential ACAT1 inhibitor”.
